The source of these data is publication PMC10816046, “The Interaction and Effect of a Small MitoBlock Library as Inhibitor of ALR Protein–Protein Interaction Pathway” (International Journal of Molecular Sciences, 2024).

For assay [1], the target named is T1, ALR (SF-ALR) (Homo sapiens, UniProt P55789).
T1 construct: gene GFER; SF-ALR, residues 81–205
Briefly: 1H-15N HSQC NMR titration of […] SF-ALR (slow exchange); IC50 from Amplex Red-HRP assay with pure enzyme. It counts as biochemical.

Assay [2] concerns the target T1, ALR (SF-ALR). Briefly: 1H-15N HSQC NMR titration (slow exchange). The format is binding.

T1 sequence (P55789 81-205): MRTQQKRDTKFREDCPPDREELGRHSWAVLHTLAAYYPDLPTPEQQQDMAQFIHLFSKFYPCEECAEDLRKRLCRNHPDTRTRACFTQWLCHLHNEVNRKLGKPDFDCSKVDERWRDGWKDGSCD

Turning to `Nc1ccc(N2CCN(C(=O)c3ccco3)CC2)cc1` [MB-13], at ALR (SF-ALR) [1], the IC50 is 10.7 µM.
Regarding `CN(c1ccc(C2=NN=C(NC3CC3)SC2)cc1)S(C)(=O)=O` [MB-7], the “1H-15N HSQC NMR titration (slow exchange)” value at ALR (SF-ALR) [2] was “perturbation on the HN signals in the 2D NMR spectra (ES-1, MB-5, MB-7, MB-8, and MB-13)”.
In turn, `CC(=O)Nc1cccc(-c2csc(Nc3ccc(C)cn3)n2)c1` [MB-8] showed an IC50 against ALR (SF-ALR) [1] of 9.02 µM.

As usually defined, the IC50 is the concentration that gives 50% inhibition. A lower IC50 goes with higher potency.
